Data set [1] in a line: Storage stability of artemether in solvent systems, impurities by HPLC. As to conditions: in contact with water, ethanol, or propellants. In kind it is physicochemical. An excerpt:
Tables 1 and 2 show impurities present in Artemether API, and artemether in three solvent systems: 20% ethanol+80% propellant; 50% ethanol+50% propellant; 100% ethanol; and a medium chain triglyceride, in this case, the triglyceride sold under the registered trade mark Miglyol® 810. Miglyol® is a medium chain triglyceride containing saturated C8 and C10 fatty acids, typically between 65-80% of caprylic acid (C8:0) and 20-35% of capric acid (C10:0). The propellant used in these test was 1,1,1,2 tetrafluoroethane, sold under the registered trade mark Zephex® 134a. Similar results were obtained for the propellants butane, Zephex® 227 (1,1,1,2,3,3,3 heptafluoropropane) and for a mixture of butane and propane. […] In all other cases, the impurities are at levels that exceed those permitted under the ICH Harmonised Tripartite Guidelines for Impurities in New Drug Products without specific identification or further toxicological examination.

The conditions of data set [2]: animals, oral administration; cited from earlier work.

With `CO[C@H]1O[C@@H]2O[C@@]3(C)CC[C@H]4[C@H](C)CC[C@@H]([C@H]1C)[C@@]24OO3` [artemether], in data set [1], the “Stability of artemether in contact with solvents” value is on record as “not stable”. For the same compound, the bioavailability in data set [2] is 19-35%.

(Values after patent publication US20190290576A1, “ANTI-MALARIAL PHARMACEUTICAL COMPOSITION” (Protopharma Limited, priority 2007, published 2019).)
